Read-outs that look alike come from different tables or passages of the source.
Experiments:
NAMPT = target: T1, NAMPT (Homo sapiens, UniProt P43490); test: Biochemical inhibition assay: NAMPT enzymatic reaction, NMN quantified by mass spectrometry; conditions: NAMPT enzymatic reaction; read-out: Biochem IC50
T1 construct: His tag; host or cells: E. coli
Method in brief: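 Inhibition of E. coli-expressed His-tagged human NAMPT, measured as NMN formation by mass spectrometry after a 30 min room-temperature reaction containing 1 μM NAM, 100 μM PRPP and 2.5 mM ATP.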

A2780 cells = test: In-vitro cell proliferation assay (SRB), A2780 cells; type: cell-based; conditions: A2780 cells, 72 hours, SRB, read-out: A2780 IC50
Method in brief: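 Read-out is SRB absorbance at 570 nm on TCA-fixed cells after 72 hours of compound treatment at 37° C. in 5% CO2. Background from a media-only plate is subtracted, and % inhibition is interpolated between two tested concentrations.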

T1 sequence (P43490 whole entry): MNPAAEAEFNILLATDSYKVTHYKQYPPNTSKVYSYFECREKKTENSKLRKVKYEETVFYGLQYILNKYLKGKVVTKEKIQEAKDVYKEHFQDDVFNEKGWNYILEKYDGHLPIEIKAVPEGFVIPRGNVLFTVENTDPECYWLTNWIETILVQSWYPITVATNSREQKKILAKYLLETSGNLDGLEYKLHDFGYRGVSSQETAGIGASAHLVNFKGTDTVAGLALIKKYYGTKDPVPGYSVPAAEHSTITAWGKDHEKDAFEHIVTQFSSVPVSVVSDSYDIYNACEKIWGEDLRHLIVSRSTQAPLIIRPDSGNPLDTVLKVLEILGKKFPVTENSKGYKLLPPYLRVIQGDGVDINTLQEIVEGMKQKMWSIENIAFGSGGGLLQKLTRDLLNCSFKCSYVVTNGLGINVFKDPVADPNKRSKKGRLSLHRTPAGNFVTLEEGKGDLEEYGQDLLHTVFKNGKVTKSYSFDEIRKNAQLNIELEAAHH

| SMILES | IC50 (NAMPT) [nM] | IC50 (A2780 cells; Homo sapiens, A2780, 72 h) [nM] | IC50 (A2780 cells) [nM] |
| --- | --- | --- | --- |
| Cc1ccc(Cl)c(S(=O)(=O)c2ccc(CNC(=O)c3cc4ccncc4s3)cc2)c1 | 2.2 | 4.9 | – |
| O=C(NCc1ccc(S(=O)(=O)c2ccc(F)cc2Cl)cc1)c1cnc2nccn2c1 | 14.4 | 100 to 1000 | – |
| COc1ccc(S(=O)(=O)c2ccc(CNC(=O)c3cnc4nccn4c3)cc2)c(Cl)c1 | 6.5 | 66.9 | – |
| COc1ccc(S(=O)(=O)c2ccc(CNC(=O)c3cc4cnccc4[nH]3)cc2)c(Cl)c1 | 9.3 | 14.5 | – |
| COc1ccc(S(=O)(=O)c2ccc(CNC(=O)c3cc4ccncc4s3)cc2)c(Cl)c1 | 2.7 | 5.5 | – |
| COc1ccc(S(=O)(=O)c2ccc(CNC(=O)c3ccc4nccn4c3)cc2)c(Cl)c1 | 16.7 | 11.4 | – |
| Cc1ccc(S(=O)(=O)c2ccc(CNC(=O)c3cc4ccncc4o3)cc2)c(Cl)c1 | 14.1 | 14.2 | – |
| Cc1ccc(S(=O)(=O)c2ccc(CNC(=O)c3cnc4nccn4c3)cc2)c(Cl)c1 | 1.5 | 0.7 | – |
| Cc1ccc(S(=O)(=O)c2ccc(CNC(=O)c3ccc4nccn4c3)cc2)c(Cl)c1 | 1.1 | 0.9 | – |
| Cc1ccc(S(=O)(=O)c2ccc(CNC(=O)c3cc4cnccc4[nH]3)cc2)c(Cl)c1 | 8 | 2.7 | – |
| Cc1ccc(S(=O)(=O)c2ccc(CNC(=O)c3cc4ccncc4s3)cc2)c(Cl)c1 | 24.9 | 1.6 | – |
| O=C(NCc1ccc(S(=O)(=O)c2cc(F)ccc2Cl)cc1)c1cc2ccncc2s1 | 4.2 | 5.7 | – |
| O=C(NCc1ccc(S(=O)(=O)c2cc(F)ccc2Cl)cc1)c1cc2ccncc2o1 | 16.3 | 24.8 | – |
| O=C(NCc1ccc(S(=O)(=O)c2cc(F)ccc2Cl)cc1)c1cc2cnccc2[nH]1 | 28.1 | 12.1 | – |
| O=C(NCc1ccc(S(=O)(=O)c2cc(F)ccc2Cl)cc1)c1ccc2nccn2c1 | 21 | 6.3 | – |
| O=C(NCc1ccc(S(=O)(=O)c2cc(F)ccc2Cl)cc1)c1cnc2nccn2c1 | 10.5 | 53 | – |
| COc1ccc(Cl)c(S(=O)(=O)c2ccc(CNC(=O)c3cc4cnccc4[nH]3)cc2)c1 | 11 | 9.7 | – |
| COc1ccc(Cl)c(S(=O)(=O)c2ccc(CNC(=O)c3cc4ccncc4o3)cc2)c1 | 2.6 | 20.6 | – |
| COc1ccc(Cl)c(S(=O)(=O)c2ccc(CNC(=O)c3cc4ccncc4s3)cc2)c1 | 4.9 | 5.3 | – |
| COc1ccc(Cl)c(S(=O)(=O)c2ccc(CNC(=O)c3ccc4nccn4c3)cc2)c1 | 5.6 | 2.7 | – |
| COc1ccc(Cl)c(S(=O)(=O)c2ccc(CNC(=O)c3cnc4nccn4c3)cc2)c1 | 6.1 | 51.5 | – |

| SMILES | IC50 (NAMPT) [nM] | IC50 (A2780 cells; Homo sapiens, A2780, 72 h) [nM] | IC50 (A2780 cells) [nM] |
| --- | --- | --- | --- |
| Cc1ccc(Cl)c(S(=O)(=O)c2ccc(CNC(=O)c3cc4ccncc4o3)cc2)c1 | 17.8 | 14.9 | – |
| Cc1ccc(Cl)c(S(=O)(=O)c2ccc(CNC(=O)c3ccc4nccn4c3)cc2)c1 | 5.6 | 4.6 | – |
| Cc1ccc(Cl)c(S(=O)(=O)c2ccc(CNC(=O)c3cnc4[nH]ncc4c3)cc2)c1 | 60.2 | 65.9 | – |
| Cc1ccc(Cl)c(S(=O)(=O)c2ccc(CNC(=O)c3cc4cnccc4[nH]3)cc2)c1 | 18.8 | 9.1 | – |
| Cc1ccc(Cl)c(S(=O)(=O)c2ccc(CNC(=O)c3cnc4nccn4c3)cc2)c1 | 5.7 | 22.5 | – |
| O=C(NCc1ccc(S(=O)(=O)c2c(F)cccc2Cl)cc1)c1cc2cnccc2[nH]1 | 114 | 37.1 | – |
| O=C(NCc1ccc(S(=O)(=O)c2c(F)cccc2Cl)cc1)c1ccc2nccn2c1 | 172 | 76.6 | – |
| COc1cccc(Cl)c1S(=O)(=O)c1ccc(CNC(=O)c2cc3ccncc3o2)cc1 | 16.7 | 21.4 | – |
| COc1cccc(Cl)c1S(=O)(=O)c1ccc(CNC(=O)c2cc3ccncc3s2)cc1 | 2.7 | 2.9 | – |
| O=C(NCc1ccc(S(=O)(=O)c2ccccc2Cl)cc1)c1cc2ccncc2s1 | 2.4 | 6.6 | – |
| N#Cc1ccccc1S(=O)(=O)c1ccc(CNC(=O)c2ccc3nccn3c2)cc1 | 15.6 | 61.3 | – |
| CCOc1cc(F)ccc1S(=O)(=O)c1ccc(CNC(=O)c2ccc3nccn3c2)cc1 | 31.4 | 1.5 | – |
| CCOc1cc(F)ccc1S(=O)(=O)c1ccc(CNC(=O)c2cc3ccncc3o2)cc1 | 7.7 | 6.9 | – |
| CCOc1cc(F)ccc1S(=O)(=O)c1ccc(CNC(=O)c2cnc3[nH]ncc3c2)cc1 | 86.3 | 67 | – |
| CCOc1cc(F)ccc1S(=O)(=O)c1ccc(CNC(=O)c2cc3ccncc3s2)cc1 | 3.8 | 0.9 | – |
| CCOc1ccccc1S(=O)(=O)c1ccc(CNC(=O)c2cnc3[nH]ncc3c2)cc1 | 49.3 | 26.9 | – |
| CCOc1ccccc1S(=O)(=O)c1ccc(CNC(=O)c2cnc3nccn3c2)cc1 | 1 | 7.1 | – |
| CCc1ccccc1S(=O)(=O)c1ccc(CNC(=O)c2cnc3nccn3c2)cc1 | 2.5 | 24.9 | – |
| COc1cccc(S(=O)(=O)c2ccc(CNC(=O)c3cnc4[nH]ncc4c3)cc2)c1F | 8.6 | 56.3 | – |
| Cc1cccc(S(=O)(=O)c2ccc(CNC(=O)c3cc4cnccc4[nH]3)cc2)c1F | 75.8 | 7 | – |
| Cc1cccc(S(=O)(=O)c2ccc(CNC(=O)c3ccc4nccn4c3)cc2)c1F | 7.5 | 3.3 | – |

| SMILES | IC50 (NAMPT) [nM] | IC50 (A2780 cells; Homo sapiens, A2780, 72 h) [nM] | IC50 (A2780 cells) [nM] |
| --- | --- | --- | --- |
| Cc1cccc(S(=O)(=O)c2ccc(CNC(=O)c3cnc4[nH]ncc4c3)cc2)c1F | 19.7 | 23.9 | – |
| Cc1cccc(S(=O)(=O)c2ccc(CNC(=O)c3cc4ccncc4s3)cc2)c1F | 10.7 | 3.3 | – |
| COc1ccc(S(=O)(=O)c2ccc(CNC(=O)c3cnc4[nH]ncc4c3)cc2)c(F)c1 | 120 | 207 | – |
| Cc1ccc(S(=O)(=O)c2ccc(CNC(=O)c3cnc4nccn4c3)cc2)c(F)c1 | 6.3 | 61.4 | – |
| Cc1ccc(S(=O)(=O)c2ccc(CNC(=O)c3cc4ccncc4o3)cc2)c(F)c1 | 12.3 | 25.3 | – |
| COc1ccc(F)c(S(=O)(=O)c2ccc(CNC(=O)c3cnc4nccn4c3)cc2)c1 | 10.4 | 62.9 | – |
| COc1ccc(F)c(S(=O)(=O)c2ccc(CNC(=O)c3ccc4nccn4c3)cc2)c1 | 4.7 | 12.8 | – |
| COc1ccc(F)c(S(=O)(=O)c2ccc(CNC(=O)c3cc4cnccc4[nH]3)cc2)c1 | 77.8 | 14.4 | – |
| COc1ccc(F)c(S(=O)(=O)c2ccc(CNC(=O)c3cc4ccncc4s3)cc2)c1 | 2.3 | 12.8 | – |
| COc1ccc(F)c(S(=O)(=O)c2ccc(CNC(=O)c3cc4ccncc4o3)cc2)c1 | 26.8 | 63.7 | – |
| Cc1ccc(F)c(S(=O)(=O)c2ccc(CNC(=O)c3cnc4nccn4c3)cc2)c1 | 6.8 | 27.5 | – |
| Cc1ccc(F)c(S(=O)(=O)c2ccc(CNC(=O)c3cnc4[nH]ncc4c3)cc2)c1 | 24.1 | – | 71.6 |
| Cc1ccc(F)c(S(=O)(=O)c2ccc(CNC(=O)c3cc4ccncc4o3)cc2)c1 | 5.9 | 13.4 | – |
| CCCOc1cccc(F)c1S(=O)(=O)c1ccc(CNC(=O)c2cc3ccncc3o2)cc1 | 13.3 | 14.2 | – |
| CCCOc1cccc(F)c1S(=O)(=O)c1ccc(CNC(=O)c2ccc3nccn3c2)cc1 | 91.4 | 1 | – |
| O=C(NCc1ccc(S(=O)(=O)c2cccc(F)c2F)cc1)c1cnc2[nH]ncc2c1 | 82 | 279 | – |
| COc1cc(C)cc(S(=O)(=O)c2ccc(CNC(=O)c3cnc4nccn4c3)cc2)c1OC | 4.2 | 15.6 | – |
| COc1cc(C)cc(S(=O)(=O)c2ccc(CNC(=O)c3cnc4[nH]ncc4c3)cc2)c1OC | 146 | 58.6 | – |
| COc1cc(C)cc(S(=O)(=O)c2ccc(CNC(=O)c3cc4ccncc4o3)cc2)c1OC | 15.2 | 7 | – |
| COc1ccc(OC)c(S(=O)(=O)c2ccc(CNC(=O)c3cc4ccncc4o3)cc2)c1OC | 39.9 | 66.7 | – |

Reference: patent US12336981B2, “Compounds and compositions for the inhibition of NAMPT” (Valo Health, Inc., priority 2010, dated 2025)
